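Cells were grown in 96-well plates and exposed to each compound for 48 hours at five concentrations; endpoints were interpolated linearly between bracketing concentrations, or set to the highest concentration if not reached. GI50 = concentration required for 50% inhibition of growth.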 Active and inactive are the calls of the source. Rule as the data show it: active = GI50 up to about 1.1 µM and inactive = higher.
Experiments:
Experiment in all cases: NCI-60 cell line screen, 48 h
HOP-18 = test system: HOP-18
DMS-114 = test system: DMS-114
XF498 = test system: XF498
SNB-78 = test system: SNB-78
DMS-273 = test system: DMS-273
M19-MEL = test system: M19-MEL
DLD-1 = test system: DLD-1
LXFL 529 = test system: LXFL 529
RXF 631 = test system: RXF 631

Measured: GI50

O=C(CN1CCOCC1)Nc1nc(-c2ccc(Cl)cc2)cs1
inactive: HOP-18 38.5 µM | DMS-114 21.3 µM | XF498 13.2 µM | SNB-78 25.2 µM | DMS-273 17.5 µM | M19-MEL 32.6 µM | DLD-1 33.1 µM

CC(CCC(=O)O)c1ccc(Br)cc1 (stereo not drawn)
inactive: LXFL 529 > 100 µM | HOP-18 > 100 µM | DMS-114 > 100 µM | SNB-78 > 100 µM | DMS-273 > 100 µM | M19-MEL > 100 µM | DLD-1 > 100 µM

NCCCCNc1ccc2c(=O)[nH][nH]c(=O)c2c1
inactive: LXFL 529 > 100 µM | HOP-18 > 100 µM | DMS-114 > 100 µM | SNB-78 > 100 µM | DMS-273 > 100 µM | M19-MEL > 100 µM | DLD-1 > 100 µM

Cc1c(C(=O)/C=C/c2ccc([N+](=O)[O-])cc2)[n+]([O-])c2ccccc2[n+]1[O-]
inactive: LXFL 529 29.2 µM | HOP-18 > 100 µM | DMS-114 30.6 µM | XF498 > 100 µM | SNB-78 65.5 µM | DMS-273 57.3 µM | M19-MEL > 100 µM | DLD-1 42.7 µM

CCCCCCCCCCCOc1ccc(C(=O)C(=O)c2ccc(OCCCCCCCCCCC)c(OCCCCCCCCCCC)c2)cc1OCCCCCCCCCCC
inactive: LXFL 529 > 100 µM | DMS-114 > 100 µM | XF498 > 100 µM | SNB-78 > 100 µM | DMS-273 > 100 µM | M19-MEL > 100 µM | DLD-1 > 100 µM

C[C@]12Cc3conc3C(O)=C1CC[C@@H]1C2CC[C@@]2(C)C1CC[C@@H]2O (stereo partly drawn)
inactive: LXFL 529 15 µM | HOP-18 41 µM | XF498 15 µM | SNB-78 22.2 µM | DMS-273 5.22 µM | M19-MEL 11.7 µM

CC[C@@]1(O)C(=O)OCc2c1cc1n(c2=O)Cc2cc3cc4c(cc3nc2-1)OCO4
active: LXFL 529 0.0107 µM | HOP-18 0.0429 µM | DMS-114 < 0.001 µM | XF498 0.0238 µM | RXF 631 0.0143 µM | SNB-78 0.376 µM | DMS-273 < 0.001 µM | M19-MEL 0.00787 µM | DLD-1 0.0559 µM

O=C1C=CC(=O)C2=C1[C@@H](O)C1CC=CC3C(=O)O[C@@H]2C31 (stereo partly drawn)
inactive: LXFL 529 15.6 µM | HOP-18 29.4 µM | DMS-114 22.7 µM | XF498 22.1 µM | SNB-78 > 42.7 µM | DMS-273 21.9 µM | M19-MEL 23.2 µM | DLD-1 18.2 µM

O=C(O)C12C3C4C1C1C2C3C1(Br)C41OCCO1 (stereo not drawn)
inactive: LXFL 529 > 100 µM | HOP-18 > 100 µM | DMS-114 > 100 µM | XF498 > 100 µM | SNB-78 > 100 µM | DMS-273 > 100 µM | M19-MEL > 100 µM | DLD-1 > 100 µM

CCN(CC)c1oc(N(CC)CC)c(C(=O)Nc2ccccn2)c(=O)c1C(C)=O
inactive: LXFL 529 > 100 µM | DMS-114 > 100 µM | XF498 > 100 µM | SNB-78 > 100 µM | DMS-273 > 100 µM | M19-MEL > 100 µM | DLD-1 > 100 µM

COC(=O)[C@@]1(C)/C(=N/NS(=O)(=O)c2ccc(C)cc2)CCC[C@@H]1C
inactive: LXFL 529 > 100 µM | HOP-18 > 100 µM | DMS-114 24.3 µM | SNB-78 > 100 µM | M19-MEL > 100 µM | DLD-1 44.7 µM

COc1cc2c(c(OC)c1OC)[C@@H]1CCCCC[C@@H]1CCC2=O
inactive: LXFL 529 58.7 µM | HOP-18 > 100 µM | DMS-114 29.4 µM | XF498 > 94 µM | RXF 631 > 100 µM | DMS-273 > 49.4 µM | M19-MEL > 100 µM | DLD-1 38.4 µM

COc1cc(OC)c(/C=C2\N=C(C)N(Nc3nnc(NN4C(=O)/C(=C/c5c(OC)cc(OC)cc5OC)N=C4C)c4ccccc34)C2=O)c(OC)c1
inactive: LXFL 529 > 100 µM | HOP-18 > 100 µM | DMS-114 > 100 µM | SNB-78 > 100 µM | DMS-273 > 100 µM | M19-MEL > 100 µM | DLD-1 > 100 µM

Cc1c2cc[n+](C)cc2c(C)c2c1[nH]c1ccc(Oc3ccccc3)cc12
inactive: DLD-1 1.3 µM
active: LXFL 529 0.296 µM | DMS-273 0.387 µM

COc1ccc2nc(NC(=O)C(=O)C(C#N)c3ccc([N+](=O)[O-])cc3)sc2c1 (stereo not drawn)
inactive: LXFL 529 23.6 µM | HOP-18 99.8 µM | DMS-114 43.3 µM | SNB-78 > 100 µM | DMS-273 > 100 µM | M19-MEL > 100 µM | DLD-1 > 100 µM

Nc1ccc(C(=O)NN2C(=O)C(Cl)C2c2cc(Br)ccc2O)cc1 (stereo not drawn)
inactive: LXFL 529 > 100 µM | DMS-114 44.5 µM | XF498 > 100 µM | SNB-78 > 100 µM | DMS-273 80.4 µM | M19-MEL > 100 µM | DLD-1 > 100 µM

NC(=S)N1N=C2c3ccccc3CC[C@H]2[C@@H]1c1cccs1
inactive: LXFL 529 30.8 µM | HOP-18 21.1 µM | DMS-114 22.5 µM | XF498 37.2 µM | SNB-78 32.4 µM | DMS-273 10.8 µM | M19-MEL 19.9 µM | DLD-1 50.5 µM

CCOC(C[C@H](O[Si](C)(C)C(C)(C)C)[C@H]1COC(=S)S1)OCC
inactive: LXFL 529 33.1 µM | DMS-114 36.7 µM | XF498 27.2 µM | DMS-273 30.1 µM | M19-MEL 35.9 µM

CCCC[C@H](CCc1ccccc1)N(C(=O)OC)N1CCC[C@H]1COC
inactive: LXFL 529 17.2 µM | HOP-18 27.2 µM | DMS-114 15.8 µM | XF498 14 µM | RXF 631 16.9 µM | SNB-78 21.3 µM | DMS-273 18.7 µM | M19-MEL 20.1 µM | DLD-1 18.4 µM

CCCCC(N)CSSCC(N)CCCC (stereo not drawn)
inactive: LXFL 529 16.8 µM | HOP-18 > 100 µM | DMS-114 17.7 µM | XF498 20.3 µM | SNB-78 32.7 µM | DMS-273 23.4 µM | M19-MEL 26.2 µM | DLD-1 21.6 µM

CCc1nc(N)nc(C(=O)NCCNC(=O)c2nc(N)nc(CC)c2C)c1C
inactive: LXFL 529 > 100 µM | HOP-18 > 100 µM | DMS-114 > 100 µM | XF498 > 100 µM | RXF 631 > 100 µM | SNB-78 > 100 µM | DMS-273 > 100 µM | M19-MEL > 100 µM | DLD-1 > 100 µM

CCCc1nc(N)nc(C(=O)Nc2cccc(C(F)(F)F)c2)c1CC
inactive: HOP-18 > 100 µM | DMS-114 > 100 µM | XF498 > 100 µM | SNB-78 > 100 µM | DMS-273 > 100 µM | M19-MEL > 100 µM | DLD-1 > 100 µM

Source: ChEMBL document CHEMBL1201862, “PubChem BioAssay data set” (2004)
